Biological target: T1, CFTR channel in human colonic T84 cells (Homo sapiens, UniProt P13569)
T1 construct: host or cells: T84 human colonic cells
Assay: T84 assay (FLIPR membrane potential dye, forskolin/IBMX-stimulated)
Format: cell-based
Conditions: average of at least 2 runs unless marked n = 1
Protocol: For example, Human colonic T84 cells can be acquired from the European Collection of Cell Cultures (ECACC) and grown in standard culture conditions as described by the supplier. On the day before assay 25,000 T84 cells per well are plated into standard black walled, clear bottom 384-well assay plates in standard growth medium consisting of DMEM:F12 with 10% FBS and incubated overnight. […] T84 cells are incubated with the FLIPR Red membrane potential dye for 45 minutes in the presence and absence of test compound before being transferred to a commercially available fluorescence imaging plate reader (FLIPR384, Molecular Devices Corporation). Fluorescence levels are monitored continuously every second for 150 seconds; after an initial 10 second baseline, CFTR channel activity is stimulated through the addition of 10 μM forskolin in the presence of 100 μM of the phosphodiesterase inhibitor iso-butyl-methylxanthine (IBMX). […] CFTR channel opening causes chloride ion efflux and subsequent depolarization of the cells, which is measured by an increase in fluorescence. CFTR inhibitor compounds prevent cell depolarization and the associated increase in fluorescence. […]

T1 sequence (P13569 whole entry): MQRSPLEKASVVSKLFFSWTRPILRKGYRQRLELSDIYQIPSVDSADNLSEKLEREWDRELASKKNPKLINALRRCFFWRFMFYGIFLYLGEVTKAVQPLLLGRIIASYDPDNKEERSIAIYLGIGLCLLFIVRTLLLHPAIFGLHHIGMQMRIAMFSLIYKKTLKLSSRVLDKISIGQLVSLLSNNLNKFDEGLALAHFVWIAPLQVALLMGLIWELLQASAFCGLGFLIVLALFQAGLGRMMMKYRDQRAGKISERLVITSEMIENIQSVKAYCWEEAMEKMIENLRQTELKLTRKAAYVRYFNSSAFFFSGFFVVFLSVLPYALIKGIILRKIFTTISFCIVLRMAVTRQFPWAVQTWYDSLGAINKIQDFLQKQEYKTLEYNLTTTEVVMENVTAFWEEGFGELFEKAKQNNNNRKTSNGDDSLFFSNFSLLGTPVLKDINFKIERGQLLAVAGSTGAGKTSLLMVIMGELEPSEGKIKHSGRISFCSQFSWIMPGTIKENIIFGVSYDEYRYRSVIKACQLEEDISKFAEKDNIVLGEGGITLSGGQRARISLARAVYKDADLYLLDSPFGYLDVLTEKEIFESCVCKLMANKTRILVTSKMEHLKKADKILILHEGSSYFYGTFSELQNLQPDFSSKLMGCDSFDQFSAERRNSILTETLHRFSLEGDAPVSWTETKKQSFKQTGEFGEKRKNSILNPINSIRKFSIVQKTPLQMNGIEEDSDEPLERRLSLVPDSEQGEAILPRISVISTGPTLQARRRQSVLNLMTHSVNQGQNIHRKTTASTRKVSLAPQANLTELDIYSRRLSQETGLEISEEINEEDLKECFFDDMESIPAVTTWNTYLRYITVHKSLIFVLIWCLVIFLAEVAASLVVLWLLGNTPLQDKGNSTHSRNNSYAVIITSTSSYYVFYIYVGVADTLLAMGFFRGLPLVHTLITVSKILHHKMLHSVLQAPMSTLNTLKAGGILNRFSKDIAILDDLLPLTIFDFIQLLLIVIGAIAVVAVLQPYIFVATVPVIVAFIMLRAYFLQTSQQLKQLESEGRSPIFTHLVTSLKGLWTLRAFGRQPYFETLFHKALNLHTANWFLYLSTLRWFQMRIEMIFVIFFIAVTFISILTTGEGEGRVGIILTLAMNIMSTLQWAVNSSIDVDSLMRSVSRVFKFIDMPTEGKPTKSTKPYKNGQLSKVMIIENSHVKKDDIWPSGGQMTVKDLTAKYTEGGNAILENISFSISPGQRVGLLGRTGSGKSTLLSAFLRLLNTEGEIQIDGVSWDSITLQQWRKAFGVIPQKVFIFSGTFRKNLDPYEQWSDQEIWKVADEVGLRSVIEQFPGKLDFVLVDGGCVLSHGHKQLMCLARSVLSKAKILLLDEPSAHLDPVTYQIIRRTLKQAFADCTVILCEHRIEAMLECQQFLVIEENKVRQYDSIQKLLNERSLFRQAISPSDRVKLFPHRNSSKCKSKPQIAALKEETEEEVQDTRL

Molecule `O=C(NCc1ccc(Oc2cc(C(F)(F)F)cc(C(F)(F)F)c2)cc1)c1ncn(-c2cc(Cl)c(O)c(Cl)c2)n1` [Compound 62, N-(4-(3,5-bis(trifluoromethyl)phenoxy)benzyl)-1-(3,5-dichloro-4-hydroxyphenyl)-1H-1,2,4-triazole-3-carboxamide] has an IC50 of no less than 50 µM.
Molecule `CN(C)c1cccc(Oc2ccc(CNC(=O)c3ncn(-c4cc(Cl)c(O)c(Cl)c4)n3)cc2)c1` [Compound 64, 1-(3,5-dichloro-4-hydroxyphenyl)-N-(4-(3-(dimethylamino)phenoxy)benzyl)-1H-1,2,4-triazole-3-carboxamide] has an IC50 of no less than 50 µM.
